Laboratory results reported in US11053204B2, “Pyrimidinyloxy benzene derivatives as herbicides” (FMC Corporation, priority 2015, dated 2021).

Assays:
Assay type in all cases: in vivo
[1] = test system: foxtail, giant (giant foxtail, Setaria faberii); assay: Test C postemergence, plant response rating
In short: (§1)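 Visual injury score, 0 = no effect, 100 = complete control, assigned against untreated controls after 13 to 15 d in the greenhouse. Compounds were applied in a surfactant-containing non-phytotoxic solvent mix, preemergence to seeded loam/sand or silt loam soil, or postemergence to 1- to 4-leaf plants (2 to 18 cm).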

[2] = test system: lambsquarters (Chenopodium album); assay: Test C postemergence, plant response rating
In short: as §1

[3] = test system: chickweed (common chickweed, Stellaria media); assay: Test C postemergence, plant response rating
In short: as §1

[4] = test system: waterhemp (common waterhemp, Amaranthus rudis); assay: Test C postemergence, plant response rating; details: for Waterhemp plant response rating: 125 g ai/ha, scale 0 to 100 (0 no effect, 100 complete control)
In short: as §1

[5] = test system: soybean (Glycine max); assay: Test C postemergence, plant response rating
In short: as §1

[6] = test system: ragweed (common ragweed, Ambrosia elatior); assay: Test C postemergence, plant response rating
In short: as §1

[7] = test system: velvetleaf (Abutilon theophrasti); assay: Test C postemergence, plant response rating
In short: as §1

[8] = test system: ryegrass, Italian (Italian ryegrass, Lolium multiflorum); assay: Test C postemergence, plant response rating
In short: as §1

[9] = test system: oat, wild (wild oat Avena fatua); assay: Test C postemergence, plant response rating
In short: as §1

[10] = test system: wheat (Triticum aestivum); assay: Test A postemergence, visual injury rating; details: 0 to 100 scale, 0 is no effect, 100 is complete control, approximately 10 days
In short: (§2)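 Visual 0–100 rating (100 = complete control) taken about 10 d post-treatment relative to untreated checks. Preemergence: directed soil spray on sown loam/sand pots. Postemergence: seedlings 2–10 cm, 1–2 leaf. Non-phytotoxic solvent formulation with surfactant.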

[11] = test system: blackgrass (Alopecurus myosuroides); assay: Test A postemergence, visual injury rating; details: 0 to 100 scale, 0 is no effect, 100 is complete control, approximately 10 days
In short: as §2

[12] = test system: kochia (Kochia scoparia); assay: Test A postemergence, visual injury rating; details: 0 to 100 scale, 0 is no effect, 100 is complete control, approximately 10 days
In short: as §2

[13] = test system: pigweed (Amaranthus retroflexus); assay: Test A postemergence, visual injury rating; details: 0 to 100 scale, 0 is no effect, 100 is complete control, approximately 10 days
In short: as §2

[14] = test system: corn (Zea mays); assay: Test A postemergence, visual injury rating; details: 0 to 100 scale, 0 is no effect, 100 is complete control, approximately 10 days
In short: as §2

[15] = test system: galium (catchweed bedstraw, Galium aparine); assay: Test A postemergence, visual injury rating; details: 0 to 100 scale, 0 is no effect, 100 is complete control, approximately 10 days
In short: as §2

[16] = test system: ragweed (common ragweed, Ambrosia elatior); assay: Test A postemergence, visual injury rating; details: 0 to 100 scale, 0 is no effect, 100 is complete control, approximately 10 days
In short: as §2

[17] = test system: giant foxtail (Setaria faberii); assay: Test A postemergence, visual injury rating; details: 0 to 100 scale, 0 is no effect, 100 is complete control, approximately 10 days
In short: as §2

[18] = test system: barnyardgrass (Echinochloa crus-galli); assay: Test A postemergence, visual injury rating; details: 0 to 100 scale, 0 is no effect, 100 is complete control, approximately 10 days
In short: as §2

[19] = test system: Italian ryegrass (Lolium multiflorum); assay: Test A postemergence, visual injury rating; details: 0 to 100 scale, 0 is no effect, 100 is complete control, approximately 10 days
In short: as §2

[20] = 62 g ai/ha, scale 0 to 100 (0 no effect, 100 complete control)
[21] = 125 g ai/ha, scale 0 to 100 (0 no effect, 100 complete control)

Structure (SMILES): O=C(CCC(F)(F)F)c1c(Cl)cccc1Oc1ncc(Cl)cn1 [Compound 107, 1-[2-chloro-6-[(5-chloro-2-pyrimidinyl)oxy]phenyl]-4,4,4-trifluoro-1-butanone]
- pest or weed control at 16 g/ha ([1]; Setaria faberi, post-emergence, 16 g ai/ha, scale of 0 to 100): 10%
- pest or weed control at 31 g/ha ([1]; Setaria faberi, post-emergence, 31 g ai/ha, scale 0 to 100): 10%
- pest or weed control at 62 g/ha ([1]; Setaria faberi, post-emergence, 62 g ai/ha, scale 0 to 100 (0 no effect, 100 complete control)): 20%
- pest or weed control at 125 g/ha ([1]; Setaria faberi, post-emergence, 125 g ai/ha, scale 0 to 100 (0 no effect, 100 complete control)): 25%
- pest or weed control at 16 g/ha ([2]; Chenopodium album, post-emergence, 16 g ai/ha, scale of 0 to 100): 80%
- pest or weed control at 31 g/ha ([2]; Chenopodium album, post-emergence, 31 g ai/ha, scale 0 to 100): 85%
- pest or weed control at 62 g/ha ([2]; Chenopodium album, post-emergence, 62 g ai/ha, scale 0 to 100 (0 no effect, 100 complete control)): 100%
- pest or weed control at 125 g/ha ([2]; Chenopodium album, post-emergence, 125 g ai/ha, scale 0 to 100 (0 no effect, 100 complete control)): 100%
- pest or weed control at 16 g/ha ([3]; Stellaria media, post-emergence, 16 g ai/ha, scale of 0 to 100): 80%
- pest or weed control at 31 g/ha ([3]; Stellaria media, post-emergence, 31 g ai/ha, scale 0 to 100): 90%
- pest or weed control at 62 g/ha ([3]; Stellaria media, post-emergence, 62 g ai/ha, scale 0 to 100 (0 no effect, 100 complete control)): 98%
- pest or weed control at 125 g/ha ([3]; Stellaria media, post-emergence, 125 g ai/ha, scale 0 to 100 (0 no effect, 100 complete control)): 100%
- Plant response rating, Waterhemp ([4]; 16 g ai/ha, scale of 0 to 100): 95
- Plant response rating, Waterhemp ([4]; 31 g ai/ha, scale 0 to 100): 98
- Waterhemp plant response rating [4]: 100
- plant injury at 16 g/ha ([5]; Glycine max, post-emergence, 16 g ai/ha, scale of 0 to 100): 50%
- plant injury at 31 g/ha ([5]; Glycine max, post-emergence, 31 g ai/ha, scale 0 to 100): 40%
- plant injury at 62 g/ha ([5]; Glycine max, post-emergence, 62 g ai/ha, scale 0 to 100 (0 no effect, 100 complete control)): 95%
- plant injury at 125 g/ha ([5]; Glycine max, post-emergence, 125 g ai/ha, scale 0 to 100 (0 no effect, 100 complete control)): 95%
- pest or weed control at 16 g/ha ([6]; Ambrosia artemisiifolia, post-emergence, 16 g ai/ha, scale of 0 to 100): 25%
- pest or weed control at 31 g/ha ([6]; Ambrosia artemisiifolia, post-emergence, 31 g ai/ha, scale 0 to 100): 35%
- pest or weed control at 62 g/ha ([6]; Ambrosia artemisiifolia, post-emergence, 62 g ai/ha, scale 0 to 100 (0 no effect, 100 complete control)): 35%
- pest or weed control at 125 g/ha ([6]; Ambrosia artemisiifolia, post-emergence, 125 g ai/ha, scale 0 to 100 (0 no effect, 100 complete control)): 45%
- pest or weed control at 16 g/ha ([7]; Abutilon theophrasti, post-emergence, 16 g ai/ha, scale of 0 to 100): 60%
- pest or weed control at 31 g/ha ([7]; Abutilon theophrasti, post-emergence, 31 g ai/ha, scale 0 to 100): 65%
- pest or weed control at 125 g/ha ([7]; Abutilon theophrasti, post-emergence, 125 g ai/ha, scale 0 to 100 (0 no effect, 100 complete control)): 90%
- pest or weed control at 62 g/ha ([7]; Abutilon theophrasti, post-emergence, rate not given, scale 0 to 100, read-out: Plant response rating, Velvetleaf): 75%
- pest or weed control at 16 g/ha ([8]; Lolium multiflorum, post-emergence, 16 g ai/ha, scale of 0 to 100): 5%
- pest or weed control at 31 g/ha ([8]; Lolium multiflorum, post-emergence, 31 g ai/ha, scale 0 to 100): 35%
- pest or weed control at 62 g/ha ([8]; Lolium multiflorum, post-emergence, 62 g ai/ha, scale 0 to 100 (0 no effect, 100 complete control)): 20%
- pest or weed control at 125 g/ha ([8]; Lolium multiflorum, post-emergence, 125 g ai/ha, scale 0 to 100 (0 no effect, 100 complete control)): 50%
- pest or weed control at 16 g/ha ([9]; Avena fatua, post-emergence, 16 g ai/ha, scale of 0 to 100): 5%
- pest or weed control at 31 g/ha ([9]; Avena fatua, post-emergence, 31 g ai/ha, scale 0 to 100): 40%
- pest or weed control at 62 g/ha ([9]; Avena fatua, post-emergence, 62 g ai/ha, scale 0 to 100 (0 no effect, 100 complete control)): 35%
- pest or weed control at 125 g/ha ([9]; Avena fatua, post-emergence, 125 g ai/ha, scale 0 to 100 (0 no effect, 100 complete control)): 45%
- Wheat plant response rating ([10]; 31 g ai/ha): 0
- Wheat plant response rating ([10]; 125 g ai/ha): 30
- Blackgrass plant response rating ([11]; 31 g ai/ha): 50
- Blackgrass plant response rating ([11]; 125 g ai/ha): 90
- Kochia plant response rating ([12]; 31 g ai/ha): 90
- Kochia plant response rating ([12]; 125 g ai/ha): 90
- Pigweed plant response rating ([13]; 31 g ai/ha): 100
- Pigweed plant response rating ([13]; 125 g ai/ha): 100
- Corn plant response rating ([14]; 31 g ai/ha): 30
- Corn plant response rating ([14]; 125 g ai/ha): 60
- Galium plant response rating ([15]; 31 g ai/ha): 90
- Galium plant response rating ([15]; 125 g ai/ha): 90
- Ragweed plant response rating ([16]; 31 g ai/ha): 20
- Ragweed plant response rating ([16]; 125 g ai/ha): 30
- Foxtail, Giant plant response rating ([17]; 31 g ai/ha): 70
- Foxtail, Giant plant response rating ([17]; 125 g ai/ha): 90
- Barnyardgrass plant response rating ([18]; 31 g ai/ha): 40
- Barnyardgrass plant response rating ([18]; 125 g ai/ha): 90
- Ryegrass, Italian plant response rating ([19]; 31 g ai/ha): 20
- Ryegrass, Italian plant response rating ([19]; 125 g ai/ha): 80

Structure (SMILES): FC(F)(F)CCCc1c(Br)cccc1Oc1ncc(Cl)cn1 [Compound 89]
- Plant response rating, Foxtail, Giant ([1]; 16 g ai/ha, scale of 0 to 100): 10
- Plant response rating, Foxtail, Giant ([1]; 31 g ai/ha, scale 0 to 100): 10
- Foxtail, Giant plant response rating [1, 20]: 10
- Foxtail, Giant plant response rating [1, 21]: 20
- Plant response rating, Lambsquarters ([2]; 16 g ai/ha, scale of 0 to 100): 70
- Plant response rating, Lambsquarters ([2]; 31 g ai/ha, scale 0 to 100): 75
- Lambsquarters plant response rating [2, 20]: 100
- Lambsquarters plant response rating [2, 21]: 100
- Plant response rating, Chickweed ([3]; 16 g ai/ha, scale of 0 to 100): 65
- Plant response rating, Chickweed ([3]; 31 g ai/ha, scale 0 to 100): 95
- Chickweed plant response rating [3, 20]: 85
- Chickweed plant response rating [3, 21]: 100
- Plant response rating, Waterhemp ([4]; 16 g ai/ha, scale of 0 to 100): 70
- Plant response rating, Waterhemp ([4]; 31 g ai/ha, scale 0 to 100): 70
- Waterhemp plant response rating [4]: 95
- Plant response rating, Soybean ([5]; 16 g ai/ha, scale of 0 to 100): 35
- Plant response rating, Soybean ([5]; 31 g ai/ha, scale 0 to 100): 40
- Soybean plant response rating [5, 20]: 65
- Soybean plant response rating [5, 21]: 70
- Plant response rating, Ragweed ([6]; 16 g ai/ha, scale of 0 to 100): 0
- Plant response rating, Ragweed ([6]; 31 g ai/ha, scale 0 to 100): 5
- Ragweed plant response rating [6, 20]: 10
- Ragweed plant response rating [6, 21]: 25
- Plant response rating, Velvetleaf ([7]; 16 g ai/ha, scale of 0 to 100): 20
- Plant response rating, Velvetleaf ([7]; 31 g ai/ha, scale 0 to 100): 35
- Velvetleaf plant response rating [7, 21]: 70
- Plant response rating, Ryegrass, Italian ([8]; 16 g ai/ha, scale of 0 to 100): 5
- Plant response rating, Ryegrass, Italian ([8]; 31 g ai/ha, scale 0 to 100): 5
- Ryegrass, Italian plant response rating [8, 20]: 5
- Ryegrass, Italian plant response rating [8, 21]: 10
- Plant response rating, Oat, Wild ([9]; 16 g ai/ha, scale of 0 to 100): 15
- Plant response rating, Oat, Wild ([9]; 31 g ai/ha, scale 0 to 100): 10
- Oat, Wild plant response rating [9, 20]: 40
- Oat, Wild plant response rating [9, 21]: 30
- Wheat plant response rating ([10]; 31 g ai/ha): 0
- Wheat plant response rating ([10]; 125 g ai/ha): 20
- Blackgrass plant response rating ([11]; 31 g ai/ha): 20
- Blackgrass plant response rating ([11]; 125 g ai/ha): 60
- Kochia plant response rating ([12]; 31 g ai/ha): 80
- Kochia plant response rating ([12]; 125 g ai/ha): 90
- Pigweed plant response rating ([13]; 31 g ai/ha): 90
- Pigweed plant response rating ([13]; 125 g ai/ha): 90
- Corn plant response rating ([14]; 31 g ai/ha): 10
- Corn plant response rating ([14]; 125 g ai/ha): 20
- Galium plant response rating ([15]; 31 g ai/ha): 30
- Galium plant response rating ([15]; 125 g ai/ha): 80
- Ragweed plant response rating ([16]; 31 g ai/ha): 10
- Ragweed plant response rating ([16]; 125 g ai/ha): 10
- Foxtail, Giant plant response rating ([17]; 31 g ai/ha): 20
- Foxtail, Giant plant response rating ([17]; 125 g ai/ha): 50
- Barnyardgrass plant response rating ([18]; 31 g ai/ha): 30
- Barnyardgrass plant response rating ([18]; 125 g ai/ha): 90
- Ryegrass, Italian plant response rating ([19]; 31 g ai/ha): 10
- Ryegrass, Italian plant response rating ([19]; 125 g ai/ha): 30
